The text below walks through data of ChEMBL document CHEMBL3875145, “Highly potent anti-leishmanial derivatives of hederagenin, a triperpenoid from Sapindus saponaria L” (Eur J Med Chem, 2016).

The assay relates to Leishmania infantum. Description: Antiparasitic activity against Leishmania infantum MHOM/BR/70/BH46 promastigotes infected in dog DH82 cells at 1000 uM after 48 hrs by ELISA method. The note with it: MHOM/BR/70/BH46, DH82, 48 h. The assay is classed as functional. (In general: An ELISA detects its analyte on a solid surface through an enzyme-linked reagent.)
One may read the inhibition as how much of the control response was suppressed. Regarding `CC1(C)CC[C@]2(C(=O)NCc3cn(Cc4cccc([N+](=O)[O-])c4)nn3)CC[C@]3(C)C(=CC[C@@H]4[C@@]5(C)CC[C@H](O)[C@@](C)(CO)[C@@H]5CC[C@]43C)[C@@H]2C1`, the inhibition at 1000 µM is 25.4%.

Consider `CC1(C)CC[C@]2(C(=O)OCc3cn(Cc4ccccc4Cl)nn3)CC[C@]3(C)C(=CC[C@@H]4[C@@]5(C)CC[C@H](O)[C@@](C)(CO)[C@@H]5CC[C@]43C)[C@@H]2C1`, for which the inhibition at 1000 µM was determined as 0%.

Consider `CC1(C)CC[C@]2(C(=O)OCc3ccc(Cl)cc3)CC[C@]3(C)C(=CC[C@@H]4[C@@]5(C)CC[C@H](O)[C@@](C)(CO)[C@@H]5CC[C@]43C)[C@@H]2C1`, for which the inhibition at 1000 µM is 53%.

For the molecule `CC1(C)CC[C@]2(C(=O)NCc3cn(Cc4ccc([N+](=O)[O-])cc4)nn3)CC[C@]3(C)C(=CC[C@@H]4[C@@]5(C)CC[C@H](O)[C@@](C)(CO)[C@@H]5CC[C@]43C)[C@@H]2C1`, the inhibition at 1000 µM turned out to be 14%. On to `CC1(C)CC[C@]2(C(=O)OCc3cn(Cc4c(Cl)cccc4Cl)nn3)CC[C@]3(C)C(=CC[C@@H]4[C@@]5(C)CC[C@H](O)[C@@](C)(CO)[C@@H]5CC[C@]43C)[C@@H]2C1`, for which the inhibition at 1000 µM was found to be 44.5%. Take `C#CCOC(=O)[C@]12CCC(C)(C)C[C@H]1C1=CC[C@@H]3[C@@]4(C)CC[C@H](O)[C@@](C)(CO)[C@@H]4CC[C@@]3(C)[C@]1(C)CC2`: the inhibition at 1000 µM stood at 19%. In turn, `CC1(C)CC[C@]2(C(=O)OCc3cn(Cc4ccccc4)nn3)CC[C@]3(C)C(=CC[C@@H]4[C@@]5(C)CC[C@H](O)[C@@](C)(CO)[C@@H]5CC[C@]43C)[C@@H]2C1` registered an inhibition at 1000 µM of 23.5%. Turning to `CC1(C)CC[C@]2(C(=O)NCc3cn(Cc4ccccc4Cl)nn3)CC[C@]3(C)C(=CC[C@@H]4[C@@]5(C)CC[C@H](O)[C@@](C)(CO)[C@@H]5CC[C@]43C)[C@@H]2C1`, 1000 µM produced 0% inhibition. With `CC1(C)CC[C@]2(C(=O)OCc3ccc(F)cc3F)CC[C@]3(C)C(=CC[C@@H]4[C@@]5(C)CC[C@H](O)[C@@](C)(CO)[C@@H]5CC[C@]43C)[C@@H]2C1` the figure was 16%; with `CC1(C)CC[C@]2(C(=O)OCc3c(F)cccc3F)CC[C@]3(C)C(=CC[C@@H]4[C@@]5(C)CC[C@H](O)[C@@](C)(CO)[C@@H]5CC[C@]43C)[C@@H]2C1`, 25.2%. The result for `CC1(C)CC[C@]2(C(=O)NCc3cn(Cc4ccc(F)cc4F)nn3)CC[C@]3(C)C(=CC[C@@H]4[C@@]5(C)CC[C@H](O)[C@@](C)(CO)[C@@H]5CC[C@]43C)[C@@H]2C1` reads 41.8%; that for `CC1(C)CC[C@]2(C(=O)NCCN3CCCCC3)CC[C@]3(C)C(=CC[C@@H]4[C@@]5(C)CC[C@H](O)[C@@](C)(CO)[C@@H]5CC[C@]43C)[C@@H]2C1`, 0%; that for `CC1(C)CC[C@]2(C(=O)OCc3ccccc3Cl)CC[C@]3(C)C(=CC[C@@H]4[C@@]5(C)CC[C@H](O)[C@@](C)(CO)[C@@H]5CC[C@]43C)[C@@H]2C1`, 15.8%. With `CC1(C)CC[C@]2(C(=O)NCc3ccccc3)CC[C@]3(C)C(=CC[C@@H]4[C@@]5(C)CC[C@H](O)[C@@](C)(CO)[C@@H]5CC[C@]43C)[C@@H]2C1` the figure was 8.2%; with `CC1(C)CC[C@]2(C(=O)OCc3ccccc3[N+](=O)[O-])CC[C@]3(C)C(=CC[C@@H]4[C@@]5(C)CC[C@H](O)[C@@](C)(CO)[C@@H]5CC[C@]43C)[C@@H]2C1`, 71.7%; with `CC1(C)CC[C@]2(C(=O)NCCN3CCOCC3)CC[C@]3(C)C(=CC[C@@H]4[C@@]5(C)CC[C@H](O)[C@@](C)(CO)[C@@H]5CC[C@]43C)[C@@H]2C1`, 7%.

Take `CC1(C)CC[C@]2(C(=O)OCc3cn(Cc4cccc(Cl)c4)nn3)CC[C@]3(C)C(=CC[C@@H]4[C@@]5(C)CC[C@H](O)[C@@](C)(CO)[C@@H]5CC[C@]43C)[C@@H]2C1`: at 1000 µM the inhibition was 51.3%. In turn, `CC1(C)CC[C@]2(C(=O)OCc3ccccc3)CC[C@]3(C)C(=CC[C@@H]4[C@@]5(C)CC[C@H](O)[C@@](C)(CO)[C@@H]5CC[C@]43C)[C@@H]2C1` yielded an inhibition at 1000 µM of 30.2%. On to `CC1(C)CC[C@]2(C(=O)NCc3cn(Cc4cccc(Br)c4)nn3)CC[C@]3(C)C(=CC[C@@H]4[C@@]5(C)CC[C@H](O)[C@@](C)(CO)[C@@H]5CC[C@]43C)[C@@H]2C1`, for which the inhibition at 1000 µM came out at 33.3%.

Turning to `CC1(C)CC[C@]2(C(=O)OCc3cn(Cc4ccc([N+](=O)[O-])cc4)nn3)CC[C@]3(C)C(=CC[C@@H]4[C@@]5(C)CC[C@H](O)[C@@](C)(CO)[C@@H]5CC[C@]43C)[C@@H]2C1`, at 1000 µM the inhibition was 17%. With `CC1(C)CC[C@]2(C(=O)NCc3cn(Cc4ccccc4Br)nn3)CC[C@]3(C)C(=CC[C@@H]4[C@@]5(C)CC[C@H](O)[C@@](C)(CO)[C@@H]5CC[C@]43C)[C@@H]2C1` the figure was 4.2%; with `CC1(C)CC[C@]2(C(=O)OCc3cn(Cc4ccc(F)cc4)nn3)CC[C@]3(C)C(=CC[C@@H]4[C@@]5(C)CC[C@H](O)[C@@](C)(CO)[C@@H]5CC[C@]43C)[C@@H]2C1`, 33.3%. In turn, `CC1(C)CC[C@]2(C(=O)NCc3cn(Cc4cccc(Cl)c4)nn3)CC[C@]3(C)C(=CC[C@@H]4[C@@]5(C)CC[C@H](O)[C@@](C)(CO)[C@@H]5CC[C@]43C)[C@@H]2C1` registered an inhibition at 1000 µM of 31.1%. With `CC1(C)CC[C@]2(C(=O)OCc3ccccc3Br)CC[C@]3(C)C(=CC[C@@H]4[C@@]5(C)CC[C@H](O)[C@@](C)(CO)[C@@H]5CC[C@]43C)[C@@H]2C1` the figure was 40%; with `CC1(C)CC[C@]2(C(=O)NCc3cn(Cc4ccc(Br)cc4)nn3)CC[C@]3(C)C(=CC[C@@H]4[C@@]5(C)CC[C@H](O)[C@@](C)(CO)[C@@H]5CC[C@]43C)[C@@H]2C1`, 27%.

With `CC1(C)CC[C@]2(C(=O)NC(Cc3c[nH]c4ccccc34)C(=O)O)CC[C@]3(C)C(=CC[C@@H]4[C@@]5(C)CC[C@H](O)[C@@](C)(CO)[C@@H]5CC[C@]43C)[C@@H]2C1` (stereo partly specified), the inhibition at 1000 µM is 50%. The result for `CC1(C)CC[C@]2(C(=O)OCc3cn(Cc4ccccc4Br)nn3)CC[C@]3(C)C(=CC[C@@H]4[C@@]5(C)CC[C@H](O)[C@@](C)(CO)[C@@H]5CC[C@]43C)[C@@H]2C1` reads 34.6%; that for `CC1(C)CC[C@]2(C(=O)OCc3cn(Cc4ccccc4F)nn3)CC[C@]3(C)C(=CC[C@@H]4[C@@]5(C)CC[C@H](O)[C@@](C)(CO)[C@@H]5CC[C@]43C)[C@@H]2C1`, 48.3%; that for `CC1(C)CC[C@]2(C(=O)OCc3cccc(Br)c3)CC[C@]3(C)C(=CC[C@@H]4[C@@]5(C)CC[C@H](O)[C@@](C)(CO)[C@@H]5CC[C@]43C)[C@@H]2C1`, 20%. In the case of `CC1(C)CC[C@]2(C(=O)OCc3cn(Cc4cccc([N+](=O)[O-])c4)nn3)CC[C@]3(C)C(=CC[C@@H]4[C@@]5(C)CC[C@H](O)[C@@](C)(CO)[C@@H]5CC[C@]43C)[C@@H]2C1`, the inhibition at 1000 µM was found to be 26.3%. `C#CCNC(=O)[C@]12CCC(C)(C)C[C@H]1C1=CC[C@@H]3[C@@]4(C)CC[C@H](O)[C@@](C)(CO)[C@@H]4CC[C@@]3(C)[C@]1(C)CC2` came in with an inhibition at 1000 µM of 15%.
